Data taken from patent US7468376B2, “Pyrazolopyridine derivates” (Palau Pharma, S.A., priority 2003, dated 2008).

Test system: TNF-α release induced by LPS in human peripheral blood mononuclear cells
Test: Test 2: Inhibition of TNF-α release induced by LPS in human peripheral blood mononuclear cells
Type: cell-based
Details: test product at 0.1 μM, LPS 400 ng/mL, 19 h, TNF-α in supernatant by ELISA; for inhibition at 0.1 µM: Homo sapiens, PBMC
Description: Test 2: Inhibition of TNF-α Release Induced by LPS in Human Peripheral Blood Mononuclear Cells
To obtain the mononuclear cells: heparinized venous blood, obtained from healthy volunteers, is diluted with an equal volume of saline phosphate buffer without calcium or magnesium. Aliquots of 30 mL of the mixture are transferred to 50 mL centrifuge tubes containing 15 mL of Ficoll-Hypaque (1.077 g/mL). The tubes are centrifuged at 1200×g for 20 min at room temperature without braking. Approximately two-thirds of the band of platelets lying above the mononuclear cells is removed with a pipette. The mononuclear cells are carefully transferred to a 50 mL tube, washed twice with saline phosphate buffer, centrifuged at 300×g for 10 min at room temperature and resuspended in RPMI supplemented with 1% inactivated fetal bovine serum at a cell density of 2×10^6 cells/mL.
Inhibition of TNF-α release: 100 μL of mononuclear cells (2×10^6 cells/mL) are incubated on 96-well plates with 50 μL of the test product (final concentration, 0.001-10 μM) and 50 μL LPS (E. coli 055B5, Sigma) at a final concentration of 400 ng/mL for 19 h at 37° C. in an atmosphere with CO2 at 5%. The amount of TNF-α released in the supernatant is quantified using a commercial ELISA kit (Biosource International).

SMILES	inhibition at 0.1 µM [%]	% Inhibition at 0.1 μM [%]
OCCCn1cc2cc(-c3ccnc(NCC4CC4)n3)c(-c3ccc(F)cc3)nc2n1 [Example 212, 3-[5-[2-[(Cyclopropylmethyl)-amino]pyrimidin-4-yl]-6-(4-fluorophenyl)pyrazolo[3,4-b]pyridin-2-yl]propan-1-ol]	67.5	–
OCCCn1cc2c(-c3ccc(F)cc3)c(-c3ccnc(NCC4CC4)n3)c(-c3ccc(F)cc3)nc2n1 [Example 213, 3-[5-[2-[(Cyclopropylmethyl)amino]-pyrimidin-4-yl]-4,6-bis(4-fluorophenyl)pyrazolo[3,4-b]pyridin-2-yl]propan-1-ol]	68.1	–
Cn1cc2c(-c3ccc(F)cc3)c(-c3ccnc(Nc4ccc(S(N)(=O)=O)cc4)c3)c(-c3ccc(F)cc3)nc2n1 [Example 214, 4-[4-[4,6-Bis(4-fluorophenyl)-2-methylpyrazolo[3,4-b]pyridin-5-yl]pyridin-2-ylamino]benzenesulfonamide]	71.1	–
Fc1ccc(-c2nc3[nH]ncc3c(-c3cc[nH]n3)c2-c2ccncc2)cc1 [Example 217, 6-(4-Fluorophenyl)-4-(1H-pyrazol-3-yl)-5-(4-pyridyl)-1H-pyrazolo[3,4-b]pyridine]	53.8	–
OCCNCCn1cc2c(-c3ccccc3)c(-c3ccncc3)c(-c3ccccc3)nc2n1 [Example 232, 2-[2-(4,6-Diphenyl-5-(4-pyridyl)pyrazolo[3,4-b]pyridin-2-yl)ethylamino]ethanol]	67.9	–
CC(=O)NCCCn1cc2c(-c3ccc(F)cc3)c(-c3ccncc3)c(-c3ccc(F)cc3)nc2n1 [Example 240, N-[3-[4,6-Bis(4-fluorophenyl)-5-(4-pyridyl)pyrazolo[3,4-b]pyridin-2-yl]propyl]acetamide]	58.4	–
O=C(NCCn1cc2c(-c3ccc(F)cc3)c(-c3ccncc3)c(-c3ccc(F)cc3)nc2n1)C1CCNCC1 [Example 248, N-[2-[4,6-Bis(4-fluorophenyl)-5-(4-pyridyl)pyrazolo[3,4-b]pyridin-2-yl]ethyl]piperidine-4-carboxamide]	53.2	–
O=C(CNCCO)NCCn1cc2c(-c3ccc(F)cc3)c(-c3ccncc3)c(-c3ccc(F)cc3)nc2n1 [Example 250, N-[2-[4,6-Bis(4-fluorophenyl)-5-(4-pyridyl)pyrazolo[3,4-b]pyridin-2-yl]ethyl]-2-(2-hydroxyethylamino)acetamide]	67	–
CC(=O)Nc1n[nH]c2nc(-c3ccc(F)cc3)c(-c3ccnc(NCC4CC4)n3)cc12 [Example 268, N-[5-[2-[(Cyclopropylmethyl)amino]pyrimidin-4-yl]-6-(4-fluorophenyl)-1H-pyrazolo[3,4-b]pyridin-3-yl]acetamide]	69.1	–
Cc1ccc(-c2c(-c3ccncc3)c(-c3ccc(F)cc3)nc3nn(CCCO)cc23)o1 [Example 272, 3-[6-(4-Fluorophenyl)-4-(5-methylfuran-2-yl)-5-(4-pyridyl)-pyrazolo[3,4-b]pyridin-2-yl]propan-1-ol]	65.6	–
Cc1n[nH]c2nc(-c3ccc(F)cc3)c(-c3ccnc(N[C@@H](C)c4ccccc4)n3)cc12 [Example 279, (1S)-N-(1-Phenylethyl)-[4-[6-(4-fluorophenyl)-3-methyl-1H-pyrazolo[3,4-b]pyridin-5-yl]pyrimidin-2-yl]amine]	100	–
c1ccc(-c2nc3[nH]ncc3cc2-c2ccnc(NCC3CC3)n2)cc1 [Example 282, N-Cyclopropylmethyl-4-[6-[phenyl-1H-pyrazolo[3,4-b]pyridin-5-yl]pyrimidin-2-yl]amine]	–	65.2
CC(CO)Nc1nccc(-c2cc3cn(C)nc3nc2-c2ccc(F)cc2)n1 (stereo not shown) [Example 283, 2-[4-[6-(4-Fluorophenyl)-2-methylpyrazolo[3,4-b]pyridin-5-yl]pyrimidin-2-ylamino]propan-1-ol]	52.4	–
OCCCNc1nccc(-c2cc3cn[nH]c3nc2-c2cccc(C(F)(F)F)c2)n1 [Example 287, 3-[4-[6-(3-Trifluoromethylphenyl)-1H-pyrazolo[3,4-b]pyridin-5-yl]pyrimidin-2-ylamino]propan-1-ol]	71.2	–
CCNc1nccc(-c2cc3cn[nH]c3nc2-c2cccc(C(F)(F)F)c2)n1 [Example 289, N-Ethyl-[4-[6-(3-trifluoromethyl-phenyl)-1H-pyrazolo[3,4-b]pyridin-5-yl]pyrimidin-2-yl]amine]	51.3	–
FC(F)(F)c1cccc(-c2nc3[nH]ncc3cc2-c2ccnc(NCc3ccccc3)n2)c1 [Example 290, N-Benzyl-[4-[6-(3-trifluoromethyl-phenyl)-1H-pyrazolo[3,4-b]pyridin-5-yl]pyrimidin-2-yl]amine]	65.8	–
